{"source": "patent US20250098683A1", "about": "(priority 2018, published 2025)", "key": {"bacteria [1]": {"test_system": "bacteria", "experiment": "Seed wash liquid streaked on LB media plates, inspected for bacterial growth", "type": "cell-based", "conditions": "treated five minutes, 37 C overnight", "method": "(§1) Carrot, Swiss chard, and spinach seeds (1 kg, 5 kg, and 5 kg respectively) were placed into separate Petri dishes. From each of these seeds, 9 samples were taken, each sample weighing 50 grams. […] The liquid of carrot and Swiss chard treatments were streaked on LB media plates, and kept in a 37 degrees Celsius incubator overnight, and inspected for bacterial growth on the following day. The treated seed were dried in 40 C oven for three days, and some seeds were placed on LB or PDA plates."}, "bacteria [2]": {"test_system": "bacteria", "experiment": "Treated, dried seeds placed on LB or PDA plates", "type": "cell-based", "method": "as §1"}}, "data": [{"molecule": "[Na+].[O-]Cl", "note": "[1.2% bleach, Sodium hypochlorite]", "values": [{"measurement": "bacteria in wash liquid after Swiss chard seeds were washed", "setting": "bacteria [1]; Swiss chard seeds", "result": "some bacteria"}, {"measurement": "bacteria in wash liquid after carrot seeds were washed", "setting": "bacteria [1]; carrot seeds", "result": "some bacteria"}, {"measurement": "Swiss chard seeds from which bacteria were found", "setting": "bacteria [2]; Swiss chard seeds on LB plates", "result": "about 50%"}, {"measurement": "carrot seeds from which bacteria were found", "setting": "bacteria [2]; carrot seeds, three days after placing on LB plates", "result": "about 50%"}, {"measurement": "microbes found from spinach seed", "setting": "bacteria [2]; spinach seeds on plates", "result": "both fungal and bacterial microbes were found"}]}]}
